In patent US9353082B2, “Pharmaceutical compounds” (BIAL—PORTELA & CA, S.A., priority 2008, dated 2016):
Structures can show the parent of a compound that is named as a salt.

What follows are compounds tested against T1, FAAH (Rattus norvegicus, UniProt P97612) (assay: In vitro FAAH activity in rat brain membranes, 3H-AEA substrate, % of control). Conditions: 100 nM test compound, low value = strong inhibitor.
T1 construct: Frozen brains (without cerebellum) from Wistar rats were used; from tissue; host or cells: Wistar rat brain (without cerebellum), washed membrane pellets
T1 sequence (P97612 1-579): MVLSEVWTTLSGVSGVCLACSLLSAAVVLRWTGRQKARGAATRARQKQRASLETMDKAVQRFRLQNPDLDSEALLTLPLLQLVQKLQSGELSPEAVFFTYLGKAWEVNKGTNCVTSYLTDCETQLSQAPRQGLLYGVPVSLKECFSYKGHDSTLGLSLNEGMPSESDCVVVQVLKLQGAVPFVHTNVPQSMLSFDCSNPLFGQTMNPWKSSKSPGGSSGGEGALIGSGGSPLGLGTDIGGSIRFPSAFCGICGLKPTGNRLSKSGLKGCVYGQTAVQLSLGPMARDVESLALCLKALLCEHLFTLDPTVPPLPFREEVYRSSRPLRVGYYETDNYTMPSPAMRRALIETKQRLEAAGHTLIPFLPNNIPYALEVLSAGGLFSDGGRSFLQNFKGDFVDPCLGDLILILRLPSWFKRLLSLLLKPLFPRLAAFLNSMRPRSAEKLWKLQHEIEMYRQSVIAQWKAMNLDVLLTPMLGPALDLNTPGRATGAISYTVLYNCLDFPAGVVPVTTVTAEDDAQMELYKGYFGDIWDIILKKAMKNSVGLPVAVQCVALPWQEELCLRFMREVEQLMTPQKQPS
Assay type: biochemical, Wistar rats
Summary of the method: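 Wistar rat brain membranes (5 μg protein) preincubated 15 min at 37 °C with compound at 10 μM or 0.1 μM (0.1% DMSO), then 2 μM AEA including 3H-AEA with 0.1% BSA, Tris pH 7.6, 10 min. 3H-ethanolamine counted after charcoal stop; % of no-compound control after blank subtraction.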

SMILES | In Vitro FAAH activity, 100 nM
O=C(N1CCN(c2ccc(O)cc2)CC1)n1nnc2ccccc21 [Compound 136, (1H-benzo[d][1,2,3]triazol-1-yl)(4-(4-hydroxyphenyl)piperazin-1-yl)methanone] | 0.2 % of control
COc1ccc(OC2CCN(C(=O)n3nnc4ccccc43)CC2)cc1 [Compound 137, (1H-benzo[d][1,2,3]triazol-1-yl)(4-(4-methoxyphenoxy)piperidin-1-yl)methanone] | 0.1 % of control
CN(C)C(=O)n1cnc(-c2ccc(N3CCN(c4ccccc4)CC3)cc2)n1 [Compound 138, N,N-dimethyl-3-(4-(4-phenylpiperazin-1-yl)phenyl)-1H-1,2,4-triazole-1-carboxamide] | 83.8 % of control
CN(C)C(=O)n1cnc(-c2ccc(Oc3ccc(C#N)cc3)cc2)n1 [Compound 140, 3-(4-(4-cyanophenoxy)phenyl)-N,N-dimethyl-1H-1,2,4-triazole-1-carboxamide] | 58.6 % of control
N#Cc1ccc(Oc2ccc(-c3ncn(C(=O)N4CCOCC4)n3)cc2)cc1 [Compound 141, 4-(4-(1-(morpholine-4-carbonyl)-1H-1,2,4-triazol-3-yl)phenoxy)benzonitrile] | 15.9 % of control
O=C(N[C@H]1CN2CCC1CC2)n1nnc2ccccc21 [Compound 142, (R)—N-(quinuclidin-3-yl)-1H-benzo[d][1,2,3]triazole-1-carboxamide hydrochloride] | 101.8 % of control
CN(C)C(=O)n1cnc(-c2ccc(Oc3ccc(C(N)=O)cc3)cc2)n1 [Compound 146, 3-(4-(4-carbamoylphenoxy)phenyl)-N,N-dimethyl-1H-1,2,4-triazole-1-carboxamide] | 77.1 % of control
CN(C(=O)n1cnc(-c2ccc(Oc3ccc(C(N)=O)cc3)cc2)n1)c1ccccc1 [Compound 149, 3-(4-(4-carbamoylphenoxy)phenyl)-N-methyl-N-phenyl-1H-1,2,4-triazole-1-carboxamide] | 49.9 % of control
CN(C(=O)n1nnc2ccccc21)[C@H]1CC[C@H](OCc2ccccc2)CC1 [Compound 152, N-((1r,4r)-4-(benzyloxy)cyclohexyl)-N-methyl-1H-benzo[d][1,2,3]triazole-1-carboxamide] | 1.3 % of control
COc1cccc(OCC2CCN(C(=O)n3nnc4ccccc43)CC2)c1 [Compound 153, (1H-benzo[d][1,2,3]triazol-1-yl)(4-((3-methoxyphenoxy)methyl)piperidin-1-yl)methanone] | 0 % of control
O=C(N1CCN(C2CCCC2)CC1)n1nnc2ccccc21 [Compound 154, (1H-benzo[d][1,2,3]triazol-1-yl)(4-cyclopentylpiperazin-1-yl)methanone] | 0.2 % of control
O=C(N1CCC(O)CC1)n1nnc2ccccc21 [Compound 159, (1H-benzo[d][1,2,3]triazol-1-yl)(4-hydroxypiperidin-1-yl)methanone] | 4.8 % of control
CCCCOc1ccc(OC2CCN(C(=O)n3nnc4ccccc43)CC2)cc1 [Compound 168, (1H-benzo[d][1,2,3]triazol-1-yl)(4-(4-butoxyphenoxy)piperidin-1-yl)methanone] | 0 % of control

Further lines, results first:

In Vitro FAAH activity, 100 nM | SMILES
18.8 % of control | CN(C(=O)n1cnc(Cc2ccccc2)n1)c1ccccc1 [Compound 160, 3-benzyl-N-methyl-N-phenyl-1H-1,2,4-triazole-1-carboxamide]
93.6 % of control | CC1(C)COCN1C(=O)n1cnc(-c2ccccc2)c1 [Compound 161, (4,4-dimethyloxazolidin-3-yl)(4-phenyl-1H-imidazol-1-yl)methanone]
0.3 % of control | O=C(N1CCC(Oc2ccc(OCc3ccccc3)cc2)CC1)n1nnc2ccccc21 [Compound 164, (1H-benzo[d][1,2,3]triazol-1-yl)(4-(4-(benzyloxy)phenoxy)piperidin-1-yl)methanone]
0 % of control | COc1ccc(OCC2CCN(C(=O)n3nnc4ccccc43)CC2)cc1 [Compound 165, (1H-benzo[d][1,2,3]triazol-1-yl)(4-((4-methoxyphenoxy)methyl)piperidin-1-yl)methanone]
0 % of control | COc1cccc(OC2CCN(C(=O)n3nnc4ccccc43)CC2)c1 [Compound 166, (1H-benzo[d][1,2,3]triazol-1-yl)(4-(3-methoxyphenoxy)piperidin-1-yl)methanone]
73.6 % of control | CON(C)C(=O)n1nnc2ccccc21 [Compound 169, N-methoxy-N-methyl-1H-benzo[d][1,2,3]triazole-1-carboxamide]
2.1 % of control | O=C(N1CCSC1)n1nnc2ccccc21 [Compound 170, (1H-benzo[d][1,2,3]triazol-1-yl)(thiazolidin-3-yl)methanone]
15.2 % of control | O=C(N1CCCCCCC1)n1nnc2ccccc21 [Compound 171, azocan-1-yl(1H-benzo[d][1,2,3]triazol-1-yl)methanone]
0.3 % of control | O=C(N1CCCCCC1)n1nnc2ccccc21 [Compound 172, azepan-1-yl(1H-benzo[d][1,2,3]triazol-1-yl)methanone]
70.6 % of control | C[C@@H]1CCC[C@H](C)N1C(=O)n1nnc2ccccc21 [Compound 173, (1H-benzo[d][1,2,3]triazol-1-yl)((2R,6S)-2,6-dimethylpiperidin-1-yl)methanone]
0.7 % of control | O=C(N1Cc2ccccc2C1)n1nnc2ccccc21 [Compound 174, (1H-benzo[d][1,2,3]triazol-1-yl)(isoindolin-2-yl)methanone]
21 % of control | CC1CC(C)CN(C(=O)n2nnc3ccccc32)C1 (centres unmarked) [Compound 175, (1H-benzo[d][1,2,3]triazol-1-yl)(3,5-dimethylpiperidin-1-yl)methanone]
0.2 % of control | CCOC(=O)C1CCN(C(=O)n2nnc3ccccc32)CC1 [Compound 176, ethyl 1-(1H-benzo[d][1,2,3]triazole-1-carbonyl)piperidine-4-carboxylate]
6.9 % of control | CCOC(=O)N1CCN(C(=O)n2nnc3ccccc32)CC1 [Compound 177, ethyl 4-(1H-benzo[d][1,2,3]triazole-1-carbonyl)piperazine-1-carboxylate]
94.5 % of control | CC(=O)N1CCN(C(=O)n2nnc3ccccc32)CC1 [Compound 178, 1-(4-(1H-benzo[d][1,2,3]triazole-1-carbonyl)piperazin-1-yl)ethanone]
49 % of control | NC(=O)C1CCN(C(=O)n2nnc3ccccc32)CC1 [Compound 179, 1-(1H-benzo[d][1,2,3]triazole-1-carbonyl)piperidine-4-carboxamide]
57.5 % of control | CN(C(=O)n1cnc(-c2cccs2)n1)c1ccccc1 [Compound 180, N-methyl-N-phenyl-3-(thiophen-2-yl)-1H-1,2,4-triazole-1-carboxamide]
0.9 % of control | CN(Cc1ccccc1)C(=O)n1cnc(-c2cccs2)n1 [Compound 181, N-benzyl-N-methyl-3-(thiophen-2-yl)-1H-1,2,4-triazole-1-carboxamide]

Same assay, conditions: 10 uM test compound, low value = strong inhibitor

SMILES | In Vitro FAAH activity, 10 uM
CC1(C)COCN1C(=O)n1cnc(-c2ccccc2)c1 [Compound 161, (4,4-dimethyloxazolidin-3-yl)(4-phenyl-1H-imidazol-1-yl)methanone] | 3.3 % of control
